Measured values: ChEMBL document CHEMBL1201862, “PubChem BioAssay data set” (2004)
Activity calls are given as the source filed them.

Experiments:
[1] = Luminescence Cell-Based Dose Response HTS to Identify Inhibitors of 5'UTR Stem-Loop Driven Prion Protein mRNA Translation in H4 Neuroglioblastoma Cells. [Related pubchem assays: 1827 (Project Summary), 1813 (Primary HTS)]; format: functional
[2] = luciferase reporter signal suppression in cells – H4 neuroglioma cells, luminescence, dose response (AID 1990); format: functional, cell-based
[3] = alpha-synuclein stem-loop luciferase translation blockers – H4 neuroglioma cells, luminescence, confirmation (AID 1988); format: functional, cell-based
[4] = NIH-3T3 fibroblast cytotoxicity, dose response, cytotoxicity control, cell-based, fluorescence, Alamar Blue, secondary assay (AID 2327); format: functional;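 further: NIH-3T3 mouse fibroblasts cultured with fluconazole at 8 µg/mL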
[5] = fluconazole-exposed Candida albicans growth modulators – fluorescence, retest, confirmation (AID 2467); format: functional, cell-based
[6] = blockers of HIV-1 ZM109 envelope-driven cell-cell fusion – HeLa effector, CEM target cells, luciferase, cherry-pick, dose response (AID 652058); format: functional, cell-based;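 further: luciferase signal from HIV-1 Env mediated cell-cell fusion of effector and target cells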
[7] = HIV-1 AD8 envelope cell-cell fusion blockers – cherry-pick, dose response (AID 652062); format: functional, cell-based;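 further: luciferase signal from cell-cell fusion driven by HIV-1 clade B AD8 Env; potency is for inhibitors of fusion seen as a drop in luminescence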
[8] = target: Luciferin 4-monooxygenase (Photinus pyralis, UniProt P08659); experiment: inhibition of purified Photinus pyralis luciferase – biochemical, luminescence, dose response (AID 1891)
Luciferin 4-monooxygenase, sequence (P08659 whole entry): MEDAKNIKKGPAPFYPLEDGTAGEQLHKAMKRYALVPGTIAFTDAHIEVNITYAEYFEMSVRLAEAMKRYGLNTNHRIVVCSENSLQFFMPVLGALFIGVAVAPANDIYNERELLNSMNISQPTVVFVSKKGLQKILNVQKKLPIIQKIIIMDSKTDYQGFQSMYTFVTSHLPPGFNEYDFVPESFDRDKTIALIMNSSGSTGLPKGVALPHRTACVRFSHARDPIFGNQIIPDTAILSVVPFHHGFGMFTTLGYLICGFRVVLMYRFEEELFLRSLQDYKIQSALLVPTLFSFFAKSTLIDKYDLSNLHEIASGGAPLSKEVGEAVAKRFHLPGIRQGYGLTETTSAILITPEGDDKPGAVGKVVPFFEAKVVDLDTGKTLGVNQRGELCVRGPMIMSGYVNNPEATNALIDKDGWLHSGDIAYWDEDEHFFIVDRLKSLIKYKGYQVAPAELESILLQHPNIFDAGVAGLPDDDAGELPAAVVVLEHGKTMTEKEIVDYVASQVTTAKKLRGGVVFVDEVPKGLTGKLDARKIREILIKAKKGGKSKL

[9] = Luminescence Cell-Based Dose Confirmation HTS to Identify Inhibitors of Platelet Dense Granule Release. [Related pubchem assays: 1663 (Primary HTS), 1678 (Summary of Project)]; format: functional
H4 = experiment: Luminescence Cell-Based Dose Response HTS to Identify Activators of 5'UTR Stem-Loop Driven Prion Protein mRNA Translation in H4 Neuroglioblastoma Cells. [Related pubchem assays: 1829 (Project Summary), 1814 (Primary HTS)]; format: functional; conditions: Homo sapiens
[10] = Luminescence Cell-Based Dose Response HTS to Identify Activators of Luciferase Translation or Activity in H4 […] Cells. [Related pubchem assays: 1829 (Project Summary), 1814 (Primary HTS)]; format: functional
Cytochrome P450 3A4 = Cytochrome P450 3A4 (Homo sapiens, UniProt P08684);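 further: CYP3A4 tested as one member of a cytochrome P450 panel screen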
Cytochrome P450 3A4, sequence (P08684 whole entry, the tested form may be a part): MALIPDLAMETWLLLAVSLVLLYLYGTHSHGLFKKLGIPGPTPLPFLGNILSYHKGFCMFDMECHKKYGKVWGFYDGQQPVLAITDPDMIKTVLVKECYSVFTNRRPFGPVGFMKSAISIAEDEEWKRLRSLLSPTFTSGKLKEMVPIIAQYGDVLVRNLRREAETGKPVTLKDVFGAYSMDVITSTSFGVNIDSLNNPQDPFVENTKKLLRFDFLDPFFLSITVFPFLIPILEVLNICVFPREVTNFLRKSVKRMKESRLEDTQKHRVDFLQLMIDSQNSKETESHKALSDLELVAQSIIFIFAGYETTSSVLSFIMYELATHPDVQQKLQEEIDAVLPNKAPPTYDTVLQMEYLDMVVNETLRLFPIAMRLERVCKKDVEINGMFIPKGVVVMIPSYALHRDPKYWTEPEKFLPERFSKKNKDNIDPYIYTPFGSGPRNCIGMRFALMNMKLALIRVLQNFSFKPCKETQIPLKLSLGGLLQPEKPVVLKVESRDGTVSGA

[11] = target: T1, Polyadenylate-binding protein 1 (Homo sapiens, UniProt P11940); experiment: MLLE domain peptide-binding blockers, IC50 – biochemical, fluorescence polarization, FITC-PAM2 peptide, dose response (AID 602259); format: functional; conditions: read-out: IC50_Mean
T1 sequence (P11940 whole entry, the tested form may be a part): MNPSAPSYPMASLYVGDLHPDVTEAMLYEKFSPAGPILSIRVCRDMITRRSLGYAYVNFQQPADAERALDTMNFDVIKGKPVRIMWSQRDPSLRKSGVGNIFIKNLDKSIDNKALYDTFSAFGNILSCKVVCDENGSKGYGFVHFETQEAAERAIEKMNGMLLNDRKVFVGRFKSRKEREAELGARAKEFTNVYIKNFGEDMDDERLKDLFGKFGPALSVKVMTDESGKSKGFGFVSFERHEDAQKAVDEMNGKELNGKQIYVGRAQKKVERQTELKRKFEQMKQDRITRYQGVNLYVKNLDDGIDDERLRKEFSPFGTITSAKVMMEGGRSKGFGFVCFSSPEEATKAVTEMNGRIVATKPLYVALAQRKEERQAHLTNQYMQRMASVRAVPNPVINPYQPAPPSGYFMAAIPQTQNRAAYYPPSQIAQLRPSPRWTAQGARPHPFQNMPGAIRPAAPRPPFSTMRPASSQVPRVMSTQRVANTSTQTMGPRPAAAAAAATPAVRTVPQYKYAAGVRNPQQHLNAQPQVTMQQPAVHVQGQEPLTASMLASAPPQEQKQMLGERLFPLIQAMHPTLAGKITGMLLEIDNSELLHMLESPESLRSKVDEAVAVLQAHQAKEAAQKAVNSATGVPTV

[12] = target: T1, Polyadenylate-binding protein 1; experiment: MLLE binding blockers, Cy5 peptide tracer – biochemical, fluorescence polarization, Cy5-PAM2 peptide, secondary, miRNA deadenylation inhibitor project, dose response (AID 602260); format: functional; conditions: read-out: IC50_Mean
Cytochrome P450 2C9 = Cytochrome P450 2C9 (Homo sapiens, UniProt P11712)
Cytochrome P450 2C9, sequence (P11712 whole entry): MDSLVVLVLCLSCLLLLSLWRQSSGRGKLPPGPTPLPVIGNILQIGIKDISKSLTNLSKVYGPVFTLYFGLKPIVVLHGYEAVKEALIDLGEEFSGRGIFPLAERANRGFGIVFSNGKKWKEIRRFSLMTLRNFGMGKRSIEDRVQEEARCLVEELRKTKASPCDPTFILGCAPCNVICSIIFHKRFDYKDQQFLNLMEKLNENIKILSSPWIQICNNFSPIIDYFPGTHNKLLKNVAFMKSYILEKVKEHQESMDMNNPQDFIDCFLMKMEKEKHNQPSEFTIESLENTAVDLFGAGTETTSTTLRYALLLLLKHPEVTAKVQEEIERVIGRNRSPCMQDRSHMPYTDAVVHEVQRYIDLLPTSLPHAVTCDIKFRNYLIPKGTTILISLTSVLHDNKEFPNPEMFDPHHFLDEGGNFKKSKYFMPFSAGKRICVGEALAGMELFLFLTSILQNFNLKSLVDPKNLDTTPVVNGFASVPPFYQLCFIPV

Cytochrome P450 2C19 = Cytochrome P450 2C19 (Homo sapiens, UniProt P33261); experiment: Cytochrome panel assay with activity outcomes. Panel member name: p450-cyp2c19 Compounds with AC50 equal or less than 10 uM are considered active; format: functional
Cytochrome P450 2C19, sequence (P33261 whole entry): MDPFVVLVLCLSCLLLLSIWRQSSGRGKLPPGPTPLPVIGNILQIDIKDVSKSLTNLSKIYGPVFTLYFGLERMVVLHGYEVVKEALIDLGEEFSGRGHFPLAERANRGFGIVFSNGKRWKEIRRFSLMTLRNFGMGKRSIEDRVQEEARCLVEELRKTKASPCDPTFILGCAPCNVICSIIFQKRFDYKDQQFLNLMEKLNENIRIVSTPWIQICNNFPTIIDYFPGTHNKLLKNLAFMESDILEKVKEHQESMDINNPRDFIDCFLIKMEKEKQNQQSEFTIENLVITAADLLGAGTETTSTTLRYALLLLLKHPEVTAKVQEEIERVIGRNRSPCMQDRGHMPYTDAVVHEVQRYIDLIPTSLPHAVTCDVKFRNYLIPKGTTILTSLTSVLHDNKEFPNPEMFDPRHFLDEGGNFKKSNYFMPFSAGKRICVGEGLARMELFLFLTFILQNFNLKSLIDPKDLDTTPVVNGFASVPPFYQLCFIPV

INS1 = experiment: INS-1E survival protection against cytokine death – cell-based, luminescence, retest, dose response (AID 449756); format: functional; conditions: Rattus norvegicus;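 further: cell death triggered by IL-1 beta plus TNF-alpha plus IFN-gamma mixture; protective hits raise ATP signal compared with cytokine alone wells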
Protein RecA = target: T2, Protein RecA (Mycobacterium tuberculosis, UniProt P9WHJ3); experiment: Fluorescence Cell-Free Homogeneous Dose Retest to Identify Inhibitors of RecA-Intein Splicing Activity. [Related pubchem assays (depositor defined):AID2097, AID2223, AID489010, AID492950]; format: functional
T2 sequence (P9WHJ3 whole entry): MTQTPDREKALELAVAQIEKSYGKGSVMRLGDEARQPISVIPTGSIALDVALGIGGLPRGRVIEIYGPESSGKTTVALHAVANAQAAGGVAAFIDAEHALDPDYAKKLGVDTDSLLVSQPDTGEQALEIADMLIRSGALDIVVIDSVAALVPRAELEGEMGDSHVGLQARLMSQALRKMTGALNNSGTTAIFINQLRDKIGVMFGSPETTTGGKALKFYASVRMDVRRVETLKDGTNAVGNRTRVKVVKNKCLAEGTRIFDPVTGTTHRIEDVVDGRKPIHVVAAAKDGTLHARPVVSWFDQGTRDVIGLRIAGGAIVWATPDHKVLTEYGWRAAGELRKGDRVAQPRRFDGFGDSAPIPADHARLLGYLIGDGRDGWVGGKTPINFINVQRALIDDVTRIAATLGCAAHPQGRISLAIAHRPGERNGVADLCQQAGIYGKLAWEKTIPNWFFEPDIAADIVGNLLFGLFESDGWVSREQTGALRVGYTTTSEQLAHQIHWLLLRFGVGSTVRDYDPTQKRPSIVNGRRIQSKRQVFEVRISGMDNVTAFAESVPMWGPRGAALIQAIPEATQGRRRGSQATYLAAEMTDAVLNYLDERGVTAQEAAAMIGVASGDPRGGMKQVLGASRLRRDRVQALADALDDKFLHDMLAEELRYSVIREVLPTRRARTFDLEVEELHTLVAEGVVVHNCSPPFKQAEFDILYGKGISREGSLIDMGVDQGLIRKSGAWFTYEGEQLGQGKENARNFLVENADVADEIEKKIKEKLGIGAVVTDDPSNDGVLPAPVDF

[13] = target: T3, Replicative DNA helicase DnaB (Mycobacterium tuberculosis, UniProt P9WMR3); experiment: DnaB intein splicing inhibitors, dose response, biochemical, cell-free fluorescence (AID 449749); format: functional
T3 sequence (P9WMR3 whole entry): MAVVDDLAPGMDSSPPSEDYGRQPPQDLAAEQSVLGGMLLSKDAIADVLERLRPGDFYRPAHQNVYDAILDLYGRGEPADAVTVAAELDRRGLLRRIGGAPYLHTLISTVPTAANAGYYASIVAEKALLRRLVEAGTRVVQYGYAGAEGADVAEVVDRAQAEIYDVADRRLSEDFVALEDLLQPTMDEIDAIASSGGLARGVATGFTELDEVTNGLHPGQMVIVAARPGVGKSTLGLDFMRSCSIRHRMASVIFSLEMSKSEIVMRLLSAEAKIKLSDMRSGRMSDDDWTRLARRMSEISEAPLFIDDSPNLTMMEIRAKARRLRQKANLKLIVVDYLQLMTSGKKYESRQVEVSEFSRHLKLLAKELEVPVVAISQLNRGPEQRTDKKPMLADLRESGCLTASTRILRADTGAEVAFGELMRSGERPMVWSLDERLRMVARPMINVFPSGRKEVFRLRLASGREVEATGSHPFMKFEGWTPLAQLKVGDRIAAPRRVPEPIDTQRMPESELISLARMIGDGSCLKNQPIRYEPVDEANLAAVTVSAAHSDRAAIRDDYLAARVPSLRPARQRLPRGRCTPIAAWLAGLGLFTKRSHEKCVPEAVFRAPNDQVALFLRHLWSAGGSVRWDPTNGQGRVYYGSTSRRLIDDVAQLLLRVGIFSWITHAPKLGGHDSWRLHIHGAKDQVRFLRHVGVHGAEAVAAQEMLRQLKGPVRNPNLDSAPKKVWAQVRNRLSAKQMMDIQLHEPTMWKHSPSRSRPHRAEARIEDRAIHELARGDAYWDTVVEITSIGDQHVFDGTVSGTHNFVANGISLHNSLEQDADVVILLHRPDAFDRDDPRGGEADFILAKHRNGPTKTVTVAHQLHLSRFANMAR

[14] = DRD fibroblast viability loss – cell-based, non-viral oncogenic, luminescence, dose response (AID 1934); format: functional; conditions: Homo sapiens
BJ [15] = experiment: cells; format: functional, cell-based; conditions: Homo sapiens
BJ [16] = experiment: BJ-TERT fibroblast viability loss – cell-based, RAS-independent, luminescence, dose response (AID 1933); format: functional; conditions: Homo sapiens
BJ [17] = experiment: BJ-TERT-LT-ST fibroblast viability loss – cell-based, RAS-independent, luminescence, dose response (AID 1935); format: functional; conditions: Homo sapiens;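 further: BJ fibroblasts immortalized with TERT plus LT and ST oncogenes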
Streptococcus = experiment: GAS UMAA2166 growth inhibition – luminescence, BacTiterGlo, counter-screen for streptokinase expression inhibitor project, dose response (AID 1915); format: functional, organism-based;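 further: potency for reduction of bacterial viability or growth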
[18] = tested on: Streptococcus sp. 'group A'; experiment: Streptococcus pyogenes SK(-)GAS viability under kanamycin – luminescence, BacTiterGlo, confirmation, counter-screen for streptokinase expression inhibitor project, dose response (AID 1900); format: functional, organism-based
Streptokinase A = target: T4, Streptokinase A (Streptococcus pyogenes serotype M1, UniProt P10520); experiment: viability-normalized secreted streptokinase activity reduction – plasminogen activation absorbance, OD405, dose response (AID 1914); format: functional, Streptococcus pyogenes M1 GAS;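 further: secreted streptokinase activity via plasminogen activation per viability signal from cell pellet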
T4 sequence (P10520 whole entry): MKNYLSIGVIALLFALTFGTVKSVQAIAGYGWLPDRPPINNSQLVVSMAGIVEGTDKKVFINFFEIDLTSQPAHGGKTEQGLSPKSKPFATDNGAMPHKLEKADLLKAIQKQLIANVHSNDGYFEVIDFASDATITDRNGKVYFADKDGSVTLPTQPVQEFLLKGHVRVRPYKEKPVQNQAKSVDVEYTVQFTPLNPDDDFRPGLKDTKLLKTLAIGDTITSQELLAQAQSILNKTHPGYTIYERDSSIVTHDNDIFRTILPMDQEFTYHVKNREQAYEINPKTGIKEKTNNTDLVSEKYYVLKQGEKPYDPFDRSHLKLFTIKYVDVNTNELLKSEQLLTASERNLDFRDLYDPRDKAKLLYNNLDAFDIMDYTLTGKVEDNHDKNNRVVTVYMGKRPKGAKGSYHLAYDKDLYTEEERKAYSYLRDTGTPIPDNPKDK

SMILES: CCN(CC)CCCCNc1ncc2cc(-c3cc(OC)cc(OC)c3)c(NC(=O)NC(C)(C)C)nc2n1 [PD-173074]
- EC50 [1]: 12.8 µM (active)
- EC50 [2]: > 120 µM (not active)
- EC50 [3]: 9.24 µM (active)

SMILES: O=C(O)c1ccc(CN2C(=O)CSC2=S)cc1
- EC50 [4]: > 150 µM (inactive)
- EC50 [5]: 0.153 µM (active)

SMILES: C=CC[n+]1c(-c2ccc(OC)c(OC)c2)csc1NNC(=O)Nc1ccccc1
- AC50 [6]: 0.401 µM (active)
- AC50 [7]: 15.8 µM (active)

SMILES: O=c1c2ccccc2c(-c2ccc(O)cc2)nn1-c1cccc(C(F)(F)F)c1
- EC50 [1]: > 120 µM (not active)
- EC50 [2]: 16.6 µM (active)
- EC50 [3]: > 120 µM (not active)

SMILES: CCOc1ccccc1C(=O)NCC(=O)NNC(=O)CN(C)S(=O)(=O)c1ccc(Cl)cc1
- AC50 [6]: 23.6 µM (active)

SMILES: Cc1ccc(C(=O)NC(=O)OCCn2c(C)cnc2[N+](=O)[O-])cc1
- EC50 [4]: > 160 µM (inconclusive)
- EC50 [5]: > 38 µM (not active)

SMILES: COC(=O)c1sccc1NC(=O)Nc1ccc(OC)c(OC)c1
- EC50 [8]: 2.36 µM (active)
- EC50 [9]: 9.25 µM (active)

SMILES: O=[N+]([O-])c1cccc(N/N=C/c2ccc(N3CCOCC3)cc2)c1
- EC50 (H4): 13.1 µM (active)
- EC50 [10]: 46.8 µM (active)

SMILES: Cc1nc(N=C(N)S)sc1C(=O)Nc1ccccc1
- AC50 (Cytochrome P450 3A4): 14.1 µM (inconclusive)
- IC50 [11]: > 66 µM (inactive)
- IC50 [12]: > 66 µM (inactive)
- AC50 (Cytochrome P450 2C9): 39.8 µM (inconclusive)
- AC50 (Cytochrome P450 2C19): inconclusive

SMILES: COC(=O)c1cc(-c2ccccc2)sc1NC(=O)CN1C(=O)c2ccccc2C1=O
- AC50 (Cytochrome P450 3A4): 31.6 µM (inconclusive)
- IC50 [11]: > 66 µM (inactive)
- IC50 [12]: > 66 µM (inactive)

SMILES: COc1cc(NC(=O)c2ccccc2NS(=O)(=O)c2ccc(Cl)s2)cc(OC)c1
- AC50 (INS1): 5.95 µM (active)
- EC50 [4]: 14.5 µM (active)
- EC50 [5]: 4.13 µM (active)

SMILES: Cc1cc(Nc2cccc(Cl)c2Cl)n2ncnc2n1
- EC50 [4]: > 150 µM (inactive)
- EC50 [5]: 0.769 µM (active)

SMILES: CCOC(=O)c1sc(N(Cc2ccccc2)C(=O)CCl)nc1C
- EC50 (Protein RecA): 0.79 µM (active)
- AC50 [13]: 2.6 µM (active)
- EC50 [14]: 4.97 µM (inconclusive)
- EC50 (BJ [15]): 11.9 µM (active)
- EC50 (BJ [16]): 1.77 µM (active)
- EC50 (BJ [17]): 8.8 µM (active)

SMILES: O=[N+]([O-])/C=C/c1c(OCc2ccccc2)ccc2ccccc12
- EC50 (Streptococcus): 4.18 µM (active)
- EC50 [18]: 1.49 µM (active)
- EC50 [14]: 3.7 µM (active)
- EC50 (BJ [15]): 90.6 µM (inconclusive)
- EC50 (BJ [16]): 2.3 µM (inconclusive)
- EC50 (Streptokinase A): 1.2 µM (active)
- EC50 (BJ [17]): 3.63 µM (inconclusive)

SMILES: O=C(c1cc(-c2ccccc2)[nH]n1)N1CCc2c([nH]c3ccccc23)C1c1ccccn1 (stereo unspecified)
- EC50 (Streptococcus): 20.4 µM (active)
- EC50 [18]: 10.3 µM (active)
- EC50 [4]: > 160 µM (inactive)
- EC50 [5]: 0.718 µM (active)

SMILES: O=C(O)c1ccc2c(=O)n3c(nc2c1)/C(=C/c1ccc(C(F)(F)F)cc1)CC3
- EC50 [14]: > 150 µM (not active)
- EC50 (BJ [15]): > 150 µM (not active)
- EC50 (BJ [16]): > 150 µM (not active)
- EC50 (BJ [17]): > 150 µM (inconclusive)

SMILES: O=C1/C(=C\c2ccccc2)C2OCC=C3CN4CCC56c7ccccc7N1C5C2C3CC46 (stereo unspecified)
- EC50 [14]: 15.3 µM (active)
- EC50 (BJ [15]): > 150 µM (not active)
- EC50 (BJ [16]): 19.4 µM (active)
- EC50 (BJ [17]): > 75 µM (inconclusive)

SMILES: COc1cccc(N/C=C/C(=O)c2ccc(OC)c(OC)c2)c1
- EC50 [8]: 14.2 µM (active)
- EC50 [9]: 22.8 µM (active)

SMILES: CCOC(=O)c1cc(-c2ccccc2)sc1NC(=O)C(C)OC(=O)c1cccnc1OCC (stereo unspecified)
- EC50 [8]: > 112 µM (not active)
- EC50 [9]: > 112 µM (not active)

SMILES: COC(=O)c1sc(NC(=O)c2ccoc2C)nc1C
- EC50 [8]: 2.44 µM (active)
- EC50 [9]: 5.71 µM (active)
